pEC50, pKi: −log10 of the molar value. Read-outs that look alike come from different tables or passages of the source.

We go through 7 molecules from patent US7432302B2, “Composition containing polyamine transport inhibitor and use thereof” (MediQuest Therapeutics, Inc., priority 2001, dated 2008).

The subject of data set [1] is levels of spermidine or spermine in rat prostate. The following applies: oral, 0.02% or 0.1% in drinking water; cited from earlier work.
The conditions of data set [2]: rats, 10-day treatment with drug in drinking water; cited from earlier work.
Data set [3] has as its system epidermal ornithine decarboxylase activity. The note with it: mice, 0.5% BHT in food for two weeks, UV radiation; cited from earlier work.
The subject of the next data set is polyamine transporter. Nature of the data set: Polyamine transport inhibition (3H-spermidine uptake, MDA-MB-231 cells). The class given is cell-based, human. On the procedure:
The Ki values were determined using double reciprocal Lineweaver-Burke plot analyses.

Data set [4] concerns cell growth in the presence of DFMO. Nature of the data set: Growth inhibition assay in combination with DFMO. For Ave EC50 Value: 0.5 µM SPD. The class given is cell-based. The following applies: for pEC50: 144 h. On the procedure:
Medias were obtained from Mediatech, Inc. (Hemdon, Va.) and serums from Gibco BRL (Gaithersburg, Md.). 50 U/ml penicillin, 50 μg/ml streptomycin and 2 mM L-glutamine (all from Bio Whittaker, Walkersville, Md.) were included in all cultures. […] When cells were cultured with polyamines or ORI compounds, 1 mM aminoguanidine (AG; Sigma) was included to inhibit serum amine oxidase activity.

The next data set addresses T1, spermine synthase (Homo sapiens, UniProt P52788).
T1 sequence (P52788 1-366): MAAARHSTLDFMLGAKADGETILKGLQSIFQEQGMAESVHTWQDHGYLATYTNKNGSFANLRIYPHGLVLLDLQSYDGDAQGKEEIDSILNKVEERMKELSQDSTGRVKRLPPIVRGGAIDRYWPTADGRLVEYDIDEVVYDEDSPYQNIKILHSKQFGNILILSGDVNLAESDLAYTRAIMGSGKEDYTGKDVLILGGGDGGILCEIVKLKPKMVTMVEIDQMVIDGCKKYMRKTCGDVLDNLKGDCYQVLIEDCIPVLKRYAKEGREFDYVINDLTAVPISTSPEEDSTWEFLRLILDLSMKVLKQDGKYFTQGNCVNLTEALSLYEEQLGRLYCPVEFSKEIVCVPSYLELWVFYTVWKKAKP
The note with it: cited from earlier work.

Another data set relates to cultured follicles. The note with it: in culture media: DFMO 500 μM; N-butyl-1,3-diaminopropane 50 μM; cited from earlier work.
Another data set has as its system ODC activity. The note with it: at 4 to 5 hr after TPA treatment; cited from earlier work.
A further data set concerns the target T2, ODC (Rattus norvegicus, UniProt P09057).
T2 construct: from tissue; host or cells: rat liver
T2 sequence (P09057 1-461): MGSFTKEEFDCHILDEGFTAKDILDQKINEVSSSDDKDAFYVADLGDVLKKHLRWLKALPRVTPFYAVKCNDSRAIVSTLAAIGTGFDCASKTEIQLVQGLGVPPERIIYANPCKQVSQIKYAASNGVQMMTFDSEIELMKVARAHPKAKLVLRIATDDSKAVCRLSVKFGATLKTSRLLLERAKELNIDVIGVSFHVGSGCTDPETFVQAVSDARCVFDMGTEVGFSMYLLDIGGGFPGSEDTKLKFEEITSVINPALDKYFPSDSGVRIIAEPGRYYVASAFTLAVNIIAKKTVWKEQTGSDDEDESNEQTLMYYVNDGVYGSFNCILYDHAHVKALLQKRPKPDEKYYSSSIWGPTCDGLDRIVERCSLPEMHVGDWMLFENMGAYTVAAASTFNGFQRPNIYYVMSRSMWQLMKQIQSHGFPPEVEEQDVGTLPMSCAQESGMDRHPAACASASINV
The following applies: cited from earlier work.

For the molecule `NCCCNC1CCCCC1` [APCHA, N-(3-aminopropyl)cyclohexylamine], in data set [1], the “levels of spermidine or spermine in rat prostate” value is “significantly reduced levels”. Also, in [2], the LD50 (as a rule, the dose expected to kill half of the subjects tested) is recorded as greater than 500 mg/kg.
`Cc1cc(C(C)(C)C)c(O)c(C(C)(C)C)c1` [BHT, butylated hydroxytoluene]: in data set [3], the “inhibition of measured ODC activity” value is 70%.
As for `CC1CCC(N)CC1` (centres unmarked) [Compound 4MCHA, 4-methylcyclohexylamine], the “levels of spermidine or spermine in rat prostate” value in data set [1] is “significantly reduced levels”. Also, the LD50 result in data set [2] was “more than 250 mg/kg”.
Take `CCCCCCCCCCCCCCCC(=O)NCCCC[C@H](N)C(=O)NCCCNCCCCNCCCN` [IA4]: in the data set with polyamine transporter, the “potency in transporter inhibition assay” value was “demonstrated potency”. Moreover, the “potency in cell growth inhibition assay” value in data set [4] is reported as “demonstrated potency”. Further, the pEC50 in data set [4] (read-out: Ave EC50 Value) and in data set [4] (read-out: Ave EC50 value) was 6.89 each time.
As for `CCCCNCCCN` [N-butyl-1,3-diaminopropane], the pKi (usually the Ki on a negative log10 scale, so that one unit is a factor of ten) on spermine synthase was 7.92. Also, in the data set on cultured follicles, the “effect on the growth of cultured follicles” value is on record as “no effect”.
For the molecule `CCCCCCCCCCCCCC(=O)O[C@@H]1[C@@H](C)[C@@]2(O)[C@@H](C=C(CO)C[C@]3(O)C(=O)C(C)=C[C@@H]23)[C@@H]2C(C)(C)[C@]12OC(C)=O` [TPA, 12-O-tetradecanoyl-phorbol-13-acetate], the “peak ODC activity greater than control” value in the data set with ODC activity is given as 230 fold.
With `NCCCC(N)(CCl)C(=O)O` (centres unmarked) [—CH2Cl], the t1/2 result at ODC (Table 1, at 100 μM) is “t1/2 = 22 min”. Besides, the Ki value entry on ODC (Table 1 substrate analogs, apparent dissociation constant, rat liver enzyme) is “No satd kinetics”.
